From patent US20240150321A1, “PYRAZOLYLSULFONAMIDE COMPOUNDS AND THEIR USE IN THERAPY” (HOTSPOT THERAPEUTICS, INC., priority 2022, published 2024)
Where two headings read alike, the source gives them in different places.

Key:
Avi-tagged FL MALT-1 = Avi-tagged FL MALT-1 (Homo sapiens (Human), UniProt Q9UDY8); experiment: MALT-1 Fluorogenic Peptide Cleavage Assay (MALT1 inhibition assay); format: biochemical; details: Ac-LRSR-AMC peptide substrate, 30 min pre-incubation, 90 min reaction at room temperature
Sequence of Avi-tagged FL MALT-1 (Q9UDY8 whole entry): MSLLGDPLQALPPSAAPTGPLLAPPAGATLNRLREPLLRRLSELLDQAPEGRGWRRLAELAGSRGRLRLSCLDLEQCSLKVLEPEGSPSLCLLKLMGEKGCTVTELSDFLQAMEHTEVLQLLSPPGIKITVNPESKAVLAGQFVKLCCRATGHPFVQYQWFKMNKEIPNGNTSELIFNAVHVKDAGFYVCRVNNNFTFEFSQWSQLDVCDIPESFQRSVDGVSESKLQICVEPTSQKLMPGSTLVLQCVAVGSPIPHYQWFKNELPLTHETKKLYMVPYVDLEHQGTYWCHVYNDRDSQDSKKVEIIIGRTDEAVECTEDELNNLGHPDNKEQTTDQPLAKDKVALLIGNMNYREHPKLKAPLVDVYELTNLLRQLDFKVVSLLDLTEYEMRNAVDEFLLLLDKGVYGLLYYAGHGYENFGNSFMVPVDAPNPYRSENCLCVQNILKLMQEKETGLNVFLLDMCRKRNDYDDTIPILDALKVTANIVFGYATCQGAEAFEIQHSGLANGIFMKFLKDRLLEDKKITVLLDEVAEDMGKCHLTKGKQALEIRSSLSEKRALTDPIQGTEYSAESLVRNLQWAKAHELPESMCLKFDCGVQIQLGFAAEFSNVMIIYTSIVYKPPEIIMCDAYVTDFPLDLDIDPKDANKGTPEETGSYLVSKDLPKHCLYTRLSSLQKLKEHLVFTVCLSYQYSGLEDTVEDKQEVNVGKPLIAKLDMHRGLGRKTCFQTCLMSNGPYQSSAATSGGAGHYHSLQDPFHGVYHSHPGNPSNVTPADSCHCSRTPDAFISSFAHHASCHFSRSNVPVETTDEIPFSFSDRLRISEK
In short: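 Cleavage of Ac-LRSR-AMC, read as fluorescence at 342/441 nm after 90 min at room temperature, with substrate working stocks of 50 μM (Km) or 280 μM (10×Km). Enzyme, Avi-tagged full-length MALT-1 (40 nM stock), was first pre-incubated 30 min with compound in citrate/HEPES pH 6.89 buffer with TCEP, EDTA, CHAPS and 2% DMSO; IC50 fitted from normalised % inhibition.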

[1] = system: NF-kB reporter in Jurkat cells; experiment: NF-kB reporter assay in Jurkat cells stimulated with aCD3/aCD28/PMA; format: cell-based; details: read-out: NF-kB Reporter Assay IC50
In short: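 Luminescence (One-Glo) from the NF-kB reporter yielded IC50 values. Stimulation lasted 4 h at 37° C with aCD3, aCD28 and PMA (final 5, 5 and 0.03 […]), after 1 h compound pre-exposure of 25,000 Jurkat cells per well in serum-free RPMI.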

[2] = Homo sapiens, Jurkat cells, 1 hr compound pre-incubation, aCD3/aCD28/PMA stimulation 4 hr, One-Glo readout
[3] = Jurkat cells, 1 hr compound pre-incubation, aCD3/aCD28/PMA stimulation 4 hr, One-Glo readout

SMILES	IC50 (Avi-tagged FL MALT-1) [nM]	IC50 ([1]; Homo sapiens, Jurkat) [nM]	IC50 [1, 2] [nM]	IC50 [1, 3] [nM]
Cn1ncc2cccc(NS(=O)(=O)c3cnn(-c4ccccn4)c3)c21 [Compound I-145, N-(1-methyl-1H-indazol-7-yl)-1-(pyridin-2-yl)-1H-pyrazole-4-sulfonamide]	> 2500	< 400	–	–
COc1ccnc(-n2cc(S(=O)(=O)Nc3cccc4cnn(C)c34)cn2)c1 [Compound I-146, 1-(4-methoxypyridin-2-yl)-N-(1-methylindazol-7-yl)pyrazole-4-sulfonamide]	> 2500	–	< 400	–
O=S(=O)(Nc1cccc2cnn(C(F)F)c12)c1cnn(-c2cc(C(F)(F)F)ccn2)c1 [Compound I-239]	> 2500	–	> 2500	–
Cc1n[nH]c2cccc(NS(=O)(=O)c3cnn(-c4cc(C5(F)COC5)ccn4)c3)c12 [Compound I-240, 1-[4-(3-fluorooxetan-3-yl)pyridin-2-yl]-N-(3-methyl-1H-indazol-4-yl)pyrazole-4-sulfonamide]	> 2500	–	< 400	–
COc1ncc2cnn(C)c2c1NS(=O)(=O)c1cnn(-c2cc(C(F)(F)F)nn2C)c1 [Compound I-241]	> 2500	–	> 2500	–
COc1ccc2cnn(C)c2c1NS(=O)(=O)c1cnn(-c2cc(C(F)(F)F)nn2C)c1 [Compound I-242]	> 2500	–	1000 to 2500	–
Cc1n[nH]c2cccc(NS(=O)(=O)c3cnn(-c4cc(C5(O)COC5)ccn4)c3)c12 [Compound I-243]	> 2500	–	–	1000 to 2500
COC1(c2ccnc(-n3cc(S(=O)(=O)Nc4cccc5[nH]nc(C)c45)cn3)c2)COC1 [Compound I-244, 1-(4-(3-methoxyoxetan-3-yl)pyridin-2-yl)-N-(3-methyl-1H-indazol-4-yl)-1H-pyrazole-4-sulfonamide]	> 2500	–	< 400	–
Cc1n[nH]c2cccc(NS(=O)(=O)c3cnn(-c4cc(C(C)(C)O)ccn4)c3)c12 [Compound I-245]	> 2500	–	–	< 400
Cc1n[nH]c2cccc(NS(=O)(=O)c3cnn(-c4cc(C5(O)CCCC5)ccn4)c3)c12 [Compound I-246, 1-[4-(1-hydroxycyclopentyl)pyridin-2-yl]-N-(3-methyl-1H-indazol-4-yl)pyrazole-4-sulfonamide]	> 2500	–	< 400	–
Cn1ncc2cccc(NS(=O)(=O)c3cnn(-c4cc(C5(O)CCCC5)ccn4)c3)c21 [Compound I-247, 1-[4-(1-hydroxycyclopentyl)pyridin-2-yl]-N-(1-methylindazol-7-yl) pyrazole-4-sulfonamide]	> 2500	–	< 400	–
Cn1ncc2cccc(NS(=O)(=O)c3cnn(-c4cc(N5CCC5)ccn4)c3)c21 [Compound I-248, 1-(4-(azetidin-1-yl)pyridin-2-yl)-N-(1-methyl-1H-indazol-7-yl)-1H-pyrazole-4-sulfonamide]	> 2500	< 400	–	–
Cn1ncc2cccc(NS(=O)(=O)c3cnn(-c4cc(N5CCCC5)ccn4)c3)c21 [Compound I-249, N-(1-methyl-1H-indazol-7-yl)-1-(4-(pyrrolidin-1-yl)pyridin-2-yl)-1H-pyrazole-4-sulfonamide]	> 2500	–	< 400	–
Cn1ncc2cccc(NS(=O)(=O)c3cnn(-c4cc(N5CCCCC5)ccn4)c3)c21 [Compound I-250, N-(1-methyl-1H-indazol-7-yl)-1-(4-(piperidin-1-yl)pyridin-2-yl)-1H-pyrazole-4-sulfonamide]	> 2500	–	< 400	–
CN1CC(F)(c2ccnc(-n3cc(S(=O)(=O)Nc4cccc5cnn(C)c45)cn3)c2)C1 [Compound I-251, 1-(4-(3-fluoro-1-methylazetidin-3-yl)pyridin-2-yl)-N-(1-methyl-1H-indazol-7-yl)-1H-pyrazole-4-sulfonamide]	> 2500	–	< 400	–
COC1(c2ccnc(-n3cc(S(=O)(=O)Nc4cccc5cnn(C)c45)cn3)c2)CN(C)C1 [Compound I-252]	> 2500	–	< 400	–
CC(=O)N1CC(F)(c2ccnc(-n3cc(S(=O)(=O)Nc4cccc5cnn(C)c45)cn3)c2)C1 [Compound I-253, 1-(4-(1-acetyl-3-fluoroazetidin-3-yl)pyridin-2-yl)-N-(1-methyl-1H-indazol-7-yl)-1H-pyrazole-4-sulfonamide]	> 2500	–	400 to 1000	–
COC1(c2ccnc(-n3cc(S(=O)(=O)Nc4cccc5cnn(C)c45)cn3)c2)CN(C(C)=O)C1 [Compound I-254]	> 2500	–	1000 to 2500	–

SMILES	IC50 (Avi-tagged FL MALT-1) [nM]	IC50 ([1]; Homo sapiens, Jurkat) [nM]	IC50 [1, 2] [nM]	IC50 [1, 3] [nM]
Cc1n[nH]c2cccc(NS(=O)(=O)c3cnn(-c4cc(C5(O)CCC5)ccn4)c3)c12 [Compound I-255, 1-[4-(1-hydroxycyclobutyl)pyridin-2-yl]-N-(3-methyl-1H-indazol-4-yl)pyrazole-4-sulfonamide]	> 2500	–	< 400	–
Cn1ncc2cccc(NS(=O)(=O)c3cnn(-c4cc(C5(O)CCCCC5)ccn4)c3)c21 [Compound I-256, 1-[4-(1-hydroxycyclohexyl)pyridin-2-yl]-N-(1-methylindazol-7-yl)pyrazole-4-sulfonamide]	> 2500	–	< 400	–
COCC(O)(COC)c1ccnc(-n2cc(S(=O)(=O)Nc3cccc4cnn(C)c34)cn2)c1 [Compound I-257, 1-(4-(2-Hydroxy-1,3-Dimethoxypropan-2-yl)Pyridin-2-yl)-N-(1-Methyl-1H-Indazol-7-yl)-1H-Pyrazole-4-Sulfonamide]	> 2500	–	1000 to 2500	–
COc1ccc2cnn(C)c2c1NS(=O)(=O)c1cnn(-c2cc(C(C)(C)OC)ccn2)c1 [Compound I-258, N-(6-methoxy-1-methyl-1H-indazol-7-yl)-1-(4-(2-methoxypropan-2-yl)pyridin-2-yl)-1H-pyrazole-4-sulfonamide]	≤ 400	–	< 400	–
COCC(COC)(OC)c1ccnc(-n2cc(S(=O)(=O)Nc3cccc4cnn(C)c34)cn2)c1 [Compound I-259, N-(1-methyl-1H-indazol-7-yl)-1-(4-(1,2,3-trimethoxypropan-2-yl)pyridin-2-yl)-1H-pyrazole-4-sulfonamide]	> 2500	–	1000 to 2500	–
COc1ncc2cnn(C)c2c1NS(=O)(=O)c1cnn(-c2cc(C(C)(C)O)ccn2)c1 [Compound I-260, 1-(4-(2-hydroxypropan-2-yl)pyridin-2-yl)-N-(6-methoxy-1-methyl-1H-pyrazolo[4,3-c]pyridin-7-yl)-1H-pyrazole-4-sulfonamide]	400 to 1000	–	400 to 1000	–
COc1ncc2cnn(C)c2c1NS(=O)(=O)c1cnn(-c2cc(C(C)(C)OC)ccn2)c1 [Compound I-261, N-(6-Methoxy-1-Methyl-1H-Pyrazolo[4,3-C]Pyridin-7-yl)-1-(4-(2-Methoxypropan-2-yl)Pyridin-2-yl)-1H-Pyrazole-4-Sulfonamide]	≤ 400	–	< 400	–
COc1ccc2cnn(C)c2c1NS(=O)(=O)c1cnn(-c2cc(C3COC3)ccn2)c1 [Compound I-262, N-(6-methoxy-1-methyl-1H-indazol-7-yl)-1-(4-(oxetan-3-yl)pyridin-2-yl)-1H-pyrazole-4-sulfonamide]	400 to 1000	–	< 400	–
COc1ccc2cnn(C)c2c1NS(=O)(=O)c1cnn(-c2cc(C3CCO3)ccn2)c1 (stereo not shown) [Compound I-263, N-(6-methoxy-1-methyl-1H-indazol-7-yl)-1-(4-(oxetan-2-yl)pyridin-2-yl)-1H-pyrazole-4-sulfonamide]	400 to 1000	–	< 400	–
Cn1ncc2cccc(NS(=O)(=O)c3cnn(-c4cc(C5COC5)ccn4)c3)c21 [Compound I-264, N-(1-methylindazol-7-yl)-1-[4-(oxetan-3-yl)pyridin-2-yl]pyrazole-4-sulfonamide]	> 2500	–	< 400	–
Cn1ncc2cccc(NS(=O)(=O)c3cnn(-c4cc(C5CCO5)ccn4)c3)c21 (stereo not shown) [Compound I-265, N-(1-methylindazol-7-yl)-1-[4-(oxetan-2-yl)pyridin-2-yl]pyrazole-4-sulfonamide]	> 2500	–	< 400	–
COc1ccc2cnn(C)c2c1NS(=O)(=O)c1cnn(-c2cc(C(F)(F)F)n(C)n2)c1 [Compound I-266, N-(6-methoxy-1-methyl-1H-indazol-7-yl)-1′-methyl-5′-(trifluoromethyl)-1′H-[1,3′-bipyrazole]-4-sulfonamide]	≤ 400	–	< 400	–
COC[C@](C)(O)c1ccnc(-n2cc(S(=O)(=O)Nc3cccc4cnn(C)c34)cn2)c1 [Compound I-267]	> 2500	–	< 400	–
COCC(F)(F)c1ccnc(-n2cc(S(=O)(=O)Nc3cccc4cnn(C)c34)cn2)c1 [Compound I-268]	> 2500	–	< 400	–
C[C@@H](O)c1ccnc(-n2cc(S(=O)(=O)Nc3cccc4cnn(C)c34)cn2)c1 [Compound I-269]	> 2500	–	< 400	–
C[C@H](O)c1ccnc(-n2cc(S(=O)(=O)Nc3cccc4cnn(C)c34)cn2)c1 [Compound I-270]	> 2500	–	< 400	–
Cn1ncc2cccc(NS(=O)(=O)c3cnn(-c4cc([C@]5(O)C[C@@H](C)C5)ccn4)c3)c21 [Compound I-271, 1-(4-((1s,3s)-1-hydroxy-3-methylcyclobutyl)pyridin-2-yl)-N-(1-methyl-1H-indazol-7-yl)-1H-pyrazole-4-sulfonamide]	> 2500	–	< 400	–
